Data as given in patent US9376424B2, “Methods for treating post traumatic stress disorder” (AZEVAN PHARMACEUTICALS, INC., priority 2010, dated 2016).
Entries after “also recorded” stand apart in the source; their conditions may differ.

Tested on: resident male rats
Assay: Resident-Intruder Model of Stress and Aggression in Rats (neuroimaging)
Assay type: in vivo, rat
Text: Resident-Intruder Model of Stress and Aggression in Rats. Neuroimaging is used to assess the blockade of stress/arousal with test compound compared to control. The effect of AVN251-HCl on functional circuitry was examined using the imaging method for awake rats. Additional details of the assay are described in Ferris et al. (2008).
Male rats in the company of a female cage mate will piloerect in the presence of a male intruder. This piloerection is a sign of stress and aggressive intent and is associated with activation of stress/arousal circuits in the brain. […] Resident male rats from six male:female pairs were imaged while fully awake. During a single imaging session, these males were treated with vehicle or AVN251-HCl (5 mg/kg).
The total volume of brain activation for resident males confronted with their mate alone, mate plus intruder, and mate plus intruder in the presence of AVN251-HCl can be viewed as 3D models. While there appears to be a general decrease in BOLD signal in major regions with AVN251-HCl treatment, sexual motivation, as assessed by the presentation of a novel receptive female, was unaffected by V1a receptor blockade.
Stress circuit activation in response to an intruder male is assessed by obtaining brain scans viewed from a caudal/dorsal perspective as translucent shells. The localization of activated voxels is mapped as 3D volumes of activation, which are composed of 10 subjects each. Once fully registered and segmented, the statistical responses for each subject are averaged on a voxel-by-voxel basis. Those averaged voxels exceeding a 2.0% threshold are shown in their appropriate spatial location. Functional images are acquired on awake rats at 4.7 T.
The 3D volumes of activation are composed from results obtained with 10 subjects in each condition. […] Particular olfactory systems measured included the anterior olfactory nucleus, olfactory tubercle, piriform cortex, n. laterial olfactory tract, and entrorhinal cortex. Particular dopaminergic systems measured included the prelimbic cortex, accumbens, ventral pallidum, medial dorsal thalamus, and ventral tegmentum.
Awake rats were imaged when presented with their mate+an intruder, a highly stressful stimulus.

Q: What does the source list for `CN(Cc1cccc(C(F)(F)F)c1)C(=O)[C@@H](CC(=O)N1CCC(N2CCCCC2)CC1)N1C(=O)[C@@H](N2C(=O)OC[C@@H]2c2ccccc2)[C@H]1C=Cc1ccccc1` [Example 225, 2(R)-[[4-(Piperidinyl)piperidinyl]carbonylmethyl]-2-[3(S)-(4(S)-phenyloxazolidin-2-on-3-yl)-4(R)-(2-styryl)azetidin-2-on-1-yl]acetic acid N-methyl-N-(3-trifluoromethylbenzyl)amide]?
A: sexual motivation (reward circuit activation by novel receptive female) (awake resident male rats, 5 mg/kg, listed as AVN251, 5 mg/kg): activates reward circuitry; also recorded: remained intact; activation of stress/arousal circuit in response to male intruder (BOLD imaging) (awake resident male rats, mate plus intruder, 5 mg/kg): blocked the stress/arousal response; stress and aggressive motivation compared to controls (oral administration, intruder stimulus): blocked stress and aggressive motivation
